Results as given in patent US11221326B2 (TOPPAN PRINTING CO., LTD., priority 2016, dated 2022).

Tested on: human lung cancer cell line NCI-H1975
Assay: Drug sensitivity by viable count analysis (CNT %), NCI-H1975 cells cultured with exosomes (Example 3)
Format: cell-based
Settings: Gefitinib 10 μM, 72 hours
Description: As a cell culture vessel, a Transwell cell culture insert (#3470 manufactured by Corning Incorporated) was used. The culture medium used was D-MEM (043-30085 manufactured by Wako Pure Chemical Corporation) containing 10 vol/vol % of bovine serum (EXO-FBS-50A-1 manufactured by System Biosciences, LLC), and 1 vol/vol % of penicillin-streptomycin (168-23191 manufactured by Wako Pure Chemical Corporation).
Drugs were each assessed three times using a final concentration of 10 μM of Gefitinib.
As exosomes derived from drug resistant cell line, ones recovered from the culture supernatant of human lung cancer cell line A549 (ATCC No.: CCL-185)) by ultracentrifugation were used. Assessments were conducted with respect to two conditions of 0 exosomes (no addition of the exosomes derived from the drug resistant cell line), and 1×10^9 exosomes.
In viable count analysis, drug sensitivity was assessed, as in Example 1, by using a trypan blue solution and by counting cells in the fluorescence mode of a cell counter (Countess II) manufactured by Life Technologies Inc. In the drug sensitivity assessment,CNT(cell viability)%=(viable count with addition of drug)/(viable count with addition of no drug)×100(%) was used as an assessment value.
As a reference, cells with an addition of 1×10^9 exosomes derived from the serum of a healthy person were also assessed.
(1) 2×10^4 NCI-H1975 cells were seeded in a Transwell cell culture insert.
(2) An appropriate amount of culture medium was added to the Transwell cell culture insert, followed by culturing in a CO2 incubator (37° C., 5% CO2) for 24 hours.
(1) An appropriate amount of culture medium was mixed with exosomes to prepare exosome medium solutions containing 0 exosomes (no addition of exosomes derived from a drug resistant cell line) and 1×10^9 exosomes.
(2) Each solution was added to the Transwell cell culture insert, followed by culturing in a CO2 incubator (37° C., 5% CO2) for 24 hours.
(1) An appropriate amount of the culture medium was mixed with a drug so as to have a final concentration of […]. […]

COc1cc2ncnc(Nc3ccc(F)c(Cl)c3)c2cc1OCCCN1CCOCC1 [Gefitinib]
CNT (%) Average value (0 exosomes): 59.9% | CNT (%) Average value (1 × 10^9 exosomes derived from A549): 89.2% | CNT (%) Average value (1 × 10^9 exosomes derived from serum of healthy person): 57.7%
